Experimental data from US20250152585A1, “PHARMACEUTICAL COMPOUND” (Duke Street Bio Limited, priority 2022, published 2025).
Where two headings read alike, the source gives them in different places.

Legend:
[1] = target: T1, full length N-terminally FLAG-tagged PARP1 (Homo sapiens, UniProt P09874); assay: PARP1 biochemical DELFIA assay (auto-PARylation); parameters: recombinant full length human N-terminally FLAG-tagged PARP1
[2] = target: T2, N-terminally FLAG-tagged PARP2 (amino acids 1-583) (Homo sapiens, UniProt Q9UGN5); assay: PARP2 probe displacement HTRF assay; assay type: binding; conditions: binned Kd
T2 construct: N-terminally FLAG-tagged PARP2 (amino acids 1-583)
Procedure: Data analysis was performed identical as for PARP1.

[3] = target: T1, full length N-terminally FLAG-tagged PARP1; assay: PARP1 probe displacement HTRF assay; conditions: for Selectivity: PARP1 over PARP2, ratio Kd (PARP2)/Kd (PARP1); for Kd: binned Kd
[4] = binned IC50, PARP1 biochemical DELFIA assay
[5] = read-out: PARP1 HTRF, PARP1 probe displacement HTRF
[6] = PARP1 HTRF, PARP1 probe displacement HTRF
[7] = binned IC50, biochemical auto-PARylation assay
[8] = read-out: PARP1 HTRF, probe displacement HTRF

T1 sequence (P09874 whole entry, the tested form may be a part): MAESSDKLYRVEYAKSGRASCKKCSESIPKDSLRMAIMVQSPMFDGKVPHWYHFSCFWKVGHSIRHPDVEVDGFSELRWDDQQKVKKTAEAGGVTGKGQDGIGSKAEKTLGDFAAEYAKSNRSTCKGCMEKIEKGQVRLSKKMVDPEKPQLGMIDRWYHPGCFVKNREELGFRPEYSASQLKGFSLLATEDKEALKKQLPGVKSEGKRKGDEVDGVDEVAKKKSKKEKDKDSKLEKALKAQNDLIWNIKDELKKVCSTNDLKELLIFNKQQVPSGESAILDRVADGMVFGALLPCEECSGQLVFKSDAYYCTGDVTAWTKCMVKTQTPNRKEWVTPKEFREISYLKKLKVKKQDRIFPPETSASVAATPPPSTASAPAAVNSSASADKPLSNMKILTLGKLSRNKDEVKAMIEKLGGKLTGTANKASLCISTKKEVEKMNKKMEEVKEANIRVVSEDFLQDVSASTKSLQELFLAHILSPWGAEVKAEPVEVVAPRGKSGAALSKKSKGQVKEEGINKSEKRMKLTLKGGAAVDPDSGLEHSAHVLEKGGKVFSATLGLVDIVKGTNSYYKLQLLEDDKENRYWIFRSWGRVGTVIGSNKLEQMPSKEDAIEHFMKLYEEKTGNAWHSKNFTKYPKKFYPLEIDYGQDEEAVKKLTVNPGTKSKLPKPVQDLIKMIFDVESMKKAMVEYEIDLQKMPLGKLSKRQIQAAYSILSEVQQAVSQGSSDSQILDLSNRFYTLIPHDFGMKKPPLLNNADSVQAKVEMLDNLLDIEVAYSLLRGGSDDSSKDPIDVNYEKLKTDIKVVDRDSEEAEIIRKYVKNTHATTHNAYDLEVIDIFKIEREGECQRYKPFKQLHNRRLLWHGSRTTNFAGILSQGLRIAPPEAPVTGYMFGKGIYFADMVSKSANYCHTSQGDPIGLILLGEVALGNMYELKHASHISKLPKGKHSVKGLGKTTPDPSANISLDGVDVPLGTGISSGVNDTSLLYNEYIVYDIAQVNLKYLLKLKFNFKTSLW
T2 sequence (Q9UGN5 whole entry, the tested form may be a part): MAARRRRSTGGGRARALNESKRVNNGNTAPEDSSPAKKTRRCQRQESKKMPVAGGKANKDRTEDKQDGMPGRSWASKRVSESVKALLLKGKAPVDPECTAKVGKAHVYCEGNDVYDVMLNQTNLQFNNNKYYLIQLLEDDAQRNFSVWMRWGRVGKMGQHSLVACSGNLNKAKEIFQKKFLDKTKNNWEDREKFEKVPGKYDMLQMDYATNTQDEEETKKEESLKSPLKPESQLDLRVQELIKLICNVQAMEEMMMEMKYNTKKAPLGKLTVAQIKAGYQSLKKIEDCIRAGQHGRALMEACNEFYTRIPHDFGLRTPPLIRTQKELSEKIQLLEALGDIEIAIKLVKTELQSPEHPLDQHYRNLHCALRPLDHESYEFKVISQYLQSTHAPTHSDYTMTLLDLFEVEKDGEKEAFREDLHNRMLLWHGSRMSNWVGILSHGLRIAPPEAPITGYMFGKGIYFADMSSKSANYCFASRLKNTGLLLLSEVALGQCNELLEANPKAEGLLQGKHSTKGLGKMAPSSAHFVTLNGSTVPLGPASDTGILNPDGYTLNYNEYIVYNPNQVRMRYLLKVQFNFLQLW

SMILES	IC50 [1, 4] [nM]	Kd ([2]; PARP2 probe displacement HTRF) [nM]	Selectivity ([3]; probe displacement HTRF)	Kd [3, 5] [nM]	Kd [3, 6] [nM]	IC50 [1, 7] [nM]	Kd ([2]; probe displacement HTRF) [nM]	Kd [3, 8] [nM]	Kd ([3]; PARP1 HTRF, probe displacement HTRF) [nM]
NC(=O)c1ccc(N2CCC(N3CCC(c4nc5ccccc5c(=O)[nH]4)C3)CC2)cn1 (single isomer, unassigned) [Compound 123a]	10 to 100	100 to 1000	+ (+ indicates a value of 10 to less than 50)	10 to 100					
O=c1[nH]c(C2CCCN(C3CCN(c4ccc(F)cc4F)CC3)C2)nc2ccccc12 (single isomer, unassigned) [Compound 113b]	100 to 1000	> 10000	+ (+ indicates a value of 10 to less than 50)	100 to 1000					
CNC(=O)c1ccc(OCCN2CCC(c3nc4ccccc4c(=O)[nH]3)CC2)cn1 [Compound 63]	< 10	1000 to 10000	++ (++ indicates a value of 50 to less than 100)		10 to 100				
NC(=O)c1ccc(N2CCC(N3CCCC(c4nc5ccccc5c(=O)[nH]4)C3)CC2)cn1 (single isomer, unassigned) [Compound 109b]	10 to 100	1000 to 10000	+ (+ indicates a value of 10 to less than 50)	100 to 1000					
CNC(=O)c1ccc(N2CCC(N3CCC(c4nc5ccccc5c(=O)[nH]4)C3)CC2)cn1 (racemic) [Compound 10rac]	< 10	100 to 1000	+++ (+++ indicate a value of at least 100)		< 10				
O=c1[nH]c(C2CCCN(C3CCN(c4ccc(F)cc4F)CC3)C2)nc2ccccc12 (single isomer, unassigned) [Compound 113a]	100 to 1000	100 to 1000	− (− indicates a value of less than 10)	100 to 1000					
CNC(=O)c1ccc(N2CCC(N3CCC(c4cc5cccc(F)c5c(=O)[nH]4)C3)CC2)c(F)c1 (single isomer, unassigned) [Compound 371a]			+++ (+++ indicate a value of at least 100)			< 10	10 to 100	< 10	
CNC(=O)c1ccc(F)c(N2CCC(N3CCC(c4nc5ccccc5c(=O)[nH]4)C3)CC2)n1 (racemic) [Compound 105rac]	100 to 1000	1000 to 10000	− (− indicates a value of less than 10)	100 to 1000					
CNC(=O)c1ccc(N2CCC(N3CCC(c4cc5ccc(F)cc5c(=O)[nH]4)C3)CC2)cc1F (single isomer, unassigned) [Compound 270b]			+ (+ indicates a value of 10 to less than 50)			< 10	10 to 100	< 10	
CNC(=O)c1ccc(N2CCC(N3CCCC(O)(c4nc5ccccc5c(=O)[nH]4)C3)CC2)cn1 (single isomer, unassigned) [Compound 327a]			+ (+ indicates a value of 10 to less than 50)			100 to 1000	> 10000	100 to 1000	
CNC(=O)c1ccc(N2CCC(N3CCC(c4nc5ccccc5c(=O)[nH]4)C3)CC2)c(C(F)(F)F)n1 (single isomer, unassigned) [Compound 139a]	< 10	1000 to 10000	+++ (+++ indicate a value of at least 100)	< 10					
CS(=O)(=O)Nc1ccc(N2CCC(N3CCC(c4nc5ccccc5c(=O)[nH]4)C3)CC2)cc1 (single isomer, unassigned) [Compound 250b]			+ (+ indicates a value of 10 to less than 50)			10 to 100	100 to 1000	10 to 100	
CCc1ccc(C2CCN(C3CCN(c4ccc(C(=O)NCCF)nc4)CC3)C2)[nH]c1=O (single isomer, unassigned) [Compound 165b]	10 to 100	1000 to 10000	+++ (+++ indicate a value of at least 100)	10 to 100					
CNC(=O)c1ccc(N2CCC(CN3CCC(c4nc5ccccc5c(=O)[nH]4)CC3)C2)cn1 (single isomer, unassigned) [Compound 50b]	10 to 100	> 10000	+++ (+++ indicate a value of at least 100)	10 to 100					
CNC(=O)c1ccc(OCCN2CCCC(c3nc4ccccc4c(=O)[nH]3)C2)cn1 (single isomer, unassigned) [Compound 65a]	< 10	100 to 1000	+++ (+++ indicate a value of at least 100)	< 10					
CNC(=O)c1ccc(N2CCC(N3CCCC(c4nc5cc(F)ccc5c(=O)[nH]4)C3)CC2)cn1 (single isomer, unassigned) [Compound 108b]	100 to 1000	> 10000	+ (+ indicates a value of 10 to less than 50)	100 to 1000					

SMILES	IC50 [1, 4] [nM]	Kd ([2]; PARP2 probe displacement HTRF) [nM]	Selectivity ([3]; probe displacement HTRF)	Kd [3, 5] [nM]	Kd [3, 6] [nM]	IC50 [1, 7] [nM]	Kd ([2]; probe displacement HTRF) [nM]	Kd [3, 8] [nM]	Kd ([3]; PARP1 HTRF, probe displacement HTRF) [nM]
CNC(=O)c1ccc(N2CCC(N3CCC(c4cc5[nH]nc(C(F)(F)F)c5c(=O)[nH]4)C3)CC2)c(F)n1 (single isomer, unassigned) [Compound 280a]			++ (++ indicates a value of 50 to less than 100)			10 to 100	1000 to 10000	10 to 100	
CNC(=O)c1ccc(N2CC(N3CCCC(Cc4nc5ccccc5c(=O)[nH]4)C3)C2)cn1 (single isomer, unassigned) [Compound 51b]	1000 to 10000	1000 to 10000	− (− indicates a value of less than 10)	1000 to 10000					
CNC(=O)c1ccc(N2CCC(N3CCC(c4nc5cccc(C(F)(F)F)c5c(=O)[nH]4)C3)CC2)cn1 (single isomer, unassigned) [Compound 86a]	10 to 100	100 to 1000	+ (+ indicates a value of 10 to less than 50)	10 to 100					
CNC(=O)c1ncc(N2CCC(N3CCC(c4cc5cccc(F)c5c(=O)[nH]4)C3)CC2)cn1 (racemic) [Compound 234rac]			+++ (+++ indicate a value of at least 100)			< 10	100 to 1000	< 10	
CCCc1ccc(C2CCN(C3CCN(c4ccc(C(=O)NC)nc4)CC3)C2)[nH]c1=O (single isomer, unassigned) [Compound 261b]			+++ (+++ indicate a value of at least 100)			< 10	1000 to 10000	< 10	
N#Cc1ccc(N2CCC(N3CCC(c4nc5ccccc5c(=O)[nH]4)C3)CC2)nc1 (single isomer, unassigned) [Compound 55b]	10 to 100	100 to 1000	− (− indicates a value of less than 10)	10 to 100					
CNC(=O)c1ccc(N2CC(N3CCC(c4nc5ccccc5c(=O)[nH]4)C3)C2)cn1 (single isomer, unassigned) [Compound 61b]	< 10	1000 to 10000	+++ (+++ indicate a value of at least 100)	< 10					
CNC(=O)c1ccc(N2CCC(CN3CCC(c4nc5ccccc5c(=O)[nH]4)CC3)C2)cn1 (single isomer, unassigned) [Compound 50a]	10 to 100	1000 to 10000	+ (+ indicates a value of 10 to less than 50)	10 to 100					
CNC(=O)c1ccc(N2CCC(N3CCCC(c4nc5ccncc5c(=O)[nH]4)C3)CC2)cn1 (single isomer, unassigned) [Compound 93a]	100 to 1000	> 10000	+ (+ indicates a value of 10 to less than 50)	100 to 1000					
CNC(=O)c1ccc(N2CCC(N3CCC(c4nc5ncccc5c(=O)[nH]4)C3)CC2)cn1 (single isomer, unassigned) [Compound 60b]	100 to 1000	> 10000	++ (++ indicates a value of 50 to less than 100)	10 to 100					
CC(=O)NC(=O)c1ccc(N2CCC(N3CCC(c4cc5ccccc5c(=O)[nH]4)C3)CC2)cn1 (single isomer, unassigned) [Compound 333b]			+++ (+++ indicate a value of at least 100)			10 to 100	1000 to 10000	10 to 100	
CNC(=O)c1ccc(N2CCC(N3CC4(c5nc6ccccc6c(=O)[nH]5)CCC3C4)CC2)cn1 (single isomer, unassigned) [Compound 245a]			+++ (+++ indicate a value of at least 100)			< 10	100 to 1000	< 10	
CNC(=O)c1ccc(N2CCC(N3CCCC(c4ccc(CC(F)(F)F)c(=O)[nH]4)C3)CC2)cn1 (single isomer, unassigned) [Compound 169a]	1000 to 10000	> 10000	− (− indicates a value of less than 10)	> 10000					
CNC(=O)c1ccc(N2CCC(N3CCC(c4cc5c(C(F)(F)F)cccc5c(=O)[nH]4)C3)CC2)cn1 (single isomer, unassigned) [Compound 167a]	10 to 100	> 10000	++ (++ indicates a value of 50 to less than 100)	10 to 100					
O=C(NC1CC1)c1ccc(N2CCC(N3CC4(c5nc6cccc(F)c6c(=O)[nH]5)CC3C4)CC2)c(F)n1 [Compound 376]			+++ (+++ indicate a value of at least 100)			< 10	100 to 1000		< 10
CNC(=O)c1ccc(N2CCC(N3CCC(c4nc5c(c(=O)[nH]4)CCCN5C)C3)CC2)cn1 (single isomer, unassigned) [Compound 208a, N-methyl-5-(4-(3-(8-methyl-4-oxo-3,4,5,6,7,8-hexahydropyrido[2,3-d]pyrimidin-2-yl)pyrrolidin-1-yl)piperidin-1-yl)picolinamide]	< 10	100 to 1000	+ (+ indicates a value of 10 to less than 50)		10 to 100				
